# From patent publication US20240166602A1, “SUBSTITUTED DIARYL COMPOUND AS WELL AS PREPARATION METHOD AND APPLICATION THEREOF” (SHANDONG FIRST MEDICAL UNIV & SHANDONG ACADEMY OF MEDICAL …, priority 2021, published 2024)
# Where two headings read alike, the source gives them in different places.
# Legend:
# Type in all cases: cell-based
# [1] = system: human lung cancer (A549) cells; assay: MTT tumor cell growth inhibition, human lung cancer (A549); conditions: A549, 48 h culture, MTT method, read-out: IC50 value of target compound against cancer cell proliferation, A549
# Experimental: (§1) Dissolve CHJ compound series with dimethyl sultbxide (DMSO, final concentration 0.4%), and use RPMI-1640 culture medium containing 15% fetal calf serum to prepare 1 mg/mL solution for future use. During drug administration in groups, use the culture medium to dilute it to the concentration needed.
# (§2) Cell lines: human lung cancer (A549), Inman ovarian cancer (SKOV3), human melanoma (A375) and human colon cancer (LOVO) cell lines, all purchased from the Cell Bank of the Chinese Academy of Sciences, DMEM containing 15% fetal bovine serum (High Glucose) culture medium, placed in a 37° C., 5% CO2 incubator.
# (§3) MTT is an oxidizing yellow dye with the chemical name of 3-(4,5-dimethyl-2-thiazolyl)-2,5-diphenyl-2-H-tetrazoliumbromide tetrazole bromide. The MMT method, also known as the MTT colorimetric method, can test the survival and growth of cells. The method is simple and easily accessible and often used to screet the substance with cytotoxic activity. The basic principle of testing, is that succinodehydrogenase can reduce exogenous MIT so that MTT is reduced to blueviolet crystal Formazan insoluble to water. The crystal deposits in cells. The succinodehydrogenase exists in the mitochondria of living cells, not in the dead cells. Therefore, the chromogenic reaction can only take place in living cells. Then, dissolve the blueviolet crystal Formazan contained in cells with dimethyl sulfoxide (DMSO), and measure its absorbancy with microplate reader so that the count of living cells is reflected indirectly. Within the scope of certain cell count, the amount of blueviolet crystal Formazan formed is positively correlated to the count of living cells.
# (§4) Human lung cancer (A549), human ovarian cancer (SKOV3), human melanoma (A375) and human colon cancer (LOVO) ceilsare all adherent. Based on the growth rate of tumor cells, wash the adherent tumor cells in the logarithmic phase and digest them in 0.25% EDTA pancreatic enzyme. Adjust the cell count to 1×10^5/mL and inoculate the cells in 96-pore plate, each pore containing 100 μL. Culture the cells in the 37° C. CO2 incubator, and administer the drug 24 h later. Add pharmaceutical (CJH compound series) of different concentrations to the administration group. Set up 5 dosage groups for each pharmaceutical, respectively 100, 10, 1, 0.1, 0.01 μmol/L. Set up three complex pores for each concentration. Set up blank control, DMSO (0.8%) solvent control and cis-platinum positive control. After 48 h of culture in the 37 ° C. incubator containing 5% CO2, measure the OD value through MTT method and calculate the cell inhibition ratio.
# (§5) After 48 h of culture of human lung cancer (A549), human ovarian cancer (SKOV3). human melanoma (A375) and human colon cancer (LOVO) cells, stop it and add 10 μL 0.5% MTT solution to each pore. Place it in the CO2 incubator for 4 h. Remove the liquid from each pore, respectively add 0.2 mL DMSO solution, and oscillate it adequately on the table concentrator under low frequency so that the blueviolet crystal Formazan is dissolved adequately. Place it in the microplate reader and record the OD value at the wavelength of […]. Calculate the average OD value of three parallel pores of different concentrations, and calculate the cell inhibition ratio and IC50 of each tested pharmaceutical under different concentrations based on the average.
# (§6) Inhibition ratio (%)=[1-tested sample OD/negative control group OD]×100%.
# [2] = system: human ovarian cancer (SKOV3) cells; assay: MTT tumor cell growth inhibition, human ovarian cancer (SKOV3); conditions: SKOV3, 48 h culture, MTT method, read-out: IC50 value of target compound against cancer cell proliferation, SKOV3
# Experimental: as §1, §2, §3, §4, §5, §6
# [3] = system: human colon cancer (LOVO) cells; assay: MTT tumor cell growth inhibition, human colon cancer (LOVO); conditions: 48 h culture, MTT method, read-out: IC50 value of target compound against cancer cell proliferation, LOVO
# Experimental: as §1, §2, §3, §4, §5, §6
# [4] = system: human melanoma (A375) cells; assay: MTT tumor cell growth inhibition, human melanoma (A375); conditions: A375, 48 h culture, MTT method, read-out: IC50 value of target compound against cancer cell proliferation, A375
# Experimental: as §1, §2, §3, §4, §5, §6
IC50 ([1]; Homo sapiens),"IC50 ([2]; Homo sapiens, SK-OV-3)",IC50 ([3]; Homo sapiens),"IC50 ([4]; Homo sapiens, A-375)",SMILES,IC50 [1],IC50 [2],IC50 [3],IC50 [4]
0.86 ± 0.45 µM,3.06 ± 1.1 µM,1.16 ± 0.94 µM,0.65 ± 0.14 µM,"COc1cc(CN(C)CC(O)COc2cc(Cl)cc(Br)c2)ccc1OCCN1CCC(C)CC1 (stereo not shown) [CHJ04034, 1-(3-bromo-5-chlorophenoxy)-3-((3-methoxy-4-(2-(4-methylpiperidin1-yl)ethoxy)benzyl)(methyl)amino)propan-2-ol]",–,–,–,–
245.3 ± 2.4 µM,102 ± 1.48 µM,54 ± 2.14 µM,56.21 ± 0.55 µM,"COc1cc(CN(C)CC(O)COc2cccc(NC(C)=O)c2)ccc1OCCN1CCC(C)CC1 (stereo not shown) [CHJ04058, N-(3-(2-hydroxy-3((3-methoxy-4-(2-(4-methylpiperidin-1-yl)ethoxy)benzyl)(methyl)amino)propoxy)phenyl)acetamide]",–,–,–,–
10.6 ± 3.37 µM,3.26 ± 1.21 µM,3.92 ± 0.56 µM,3.23 ± 0.49 µM,"COc1cc(CN(C)CC(O)COc2ccc(Cl)cc2Cl)ccc1OCCN1CCC(C)CC1 (stereo not shown) [CHJ04059, 1-(2,4-dichlorophenoxy)-3-((3-methoxy-4-(2-(4-methylpiperidin-1-yl)ethoxy)benzyl) (methyl)amino)propan-2-ol]",–,–,–,–
21.5 ± 3.65 µM,17.1 ± 0.24 µM,3.55 ± 2.14 µM,9.24 ± 2.65 µM,"COc1cc(CN(C)CC(O)COc2ccc(C)c(Br)c2)ccc1OCCN1CCCC1 (stereo not shown) [CHJ04064, 1-(3-bromo-4-methylphenoxy)-3-((3-methoxy-4-(2-(pyrrolidin-1-yl)ethoxy)benzyl) (methyl)amino)propan-2-ol]",–,–,–,–
29.9 ± 2.45 µM,77.1 ± 4.07 µM,2.5 ± 0.65 µM,10.3 ± 1.4 µM,"COc1cc(CN(C)CC(O)COc2cc(Cl)cc(Cl)c2)ccc1OCCN1CCCC1 (stereo not shown) [CHJ04066, 1-(3,5-dichlorophenoxy)-3-((3-methoxy-4-(2-(pyrrolidin-1-yl)ethoxy)benzyl)(methyl)amino)propan-2-ol]",–,–,–,–
12.5 ± 2.44 µM,9.62 ± 4.23 µM,5.21 ± 2.31 µM,2.26 ± 0.37 µM,"COc1cc(CN(C)CC(O)COc2ccc(Cl)c(Cl)c2)ccc1OCCN1CCCC1 (stereo not shown) [CHJ04072, 1-(3,4-dichlorophenoxy)-3-((3-methoxy-4-(2-(pyrrolidin-1-yl)ethoxy)benzyl)(methyl)amino)propan-2-ol]",–,–,–,–
22.3 ± 1.98 µM,28.5 ± 5.22 µM,2.82 ± 1.05 µM,7.51 ± 2.62 µM,COc1cc(CN(C)CC(O)COc2ccccc2C(F)(F)F)ccc1OCCN1CCC(C)CC1 (stereo not shown) [CHJ04082],–,–,–,–
13.3 ± 2.02 µM,10.4 ± 1.43 µM,1.23 ± 0.17 µM,2.44 ± 1.03 µM,"COc1cc(CN(C)CC(O)COc2ccc(Cl)cc2)ccc1OCCN1CCC(C)CC1 (stereo not shown) [CHJ04083, 1-(4-chlorophenoxy)-3((3-methoxy-4-(2-(4-methylpiperidin-1-yl)ethoxy)benzyl)(methyl)amino)propan-2-ol]",–,–,–,–
42.7 ± 3.06 µM,96.4 ± 2.72 µM,7.54 ± 1.02 µM,16.7 ± 2.48 µM,"COc1ccc(OCC(O)CN(C)Cc2ccc(OCCN3CCC(C)CC3)c(OC)c2)cc1 (stereo not shown) [CHJ04084, 1-((3-methoxy-4-(2-(4-methylpiperidin-1-yl)ethoxy)benzyl)(methyl)amino)-3-(4-methoxyphenoxy)propan-2-ol]",–,–,–,–
28.8 ± 5.12 µM,49.2 ± 1.97 µM,1.94 ± 0.79 µM,7.32 ± 1.8 µM,"COc1cc(CN(C)CC(O)COc2ccccc2Cl)ccc1OCCN1CCC(C)CC1 (stereo not shown) [CHJ04085, 1-(2-chlorophenoxy)-3-((3-methoxy-4-(2-(4-methylpiperidin-1-yl)ethoxy)benzyl) (methyl)amino)propan-2-ol]",–,–,–,–
27.8 ± 1.73 µM,42.7 ± 2.61 µM,49.5 ± 3.54 µM,15 ± 2.37 µM,"CCN(CC)CCOc1ccc(CN(C)CC(O)COc2ccccc2C(C)C)cc1OC (stereo not shown) [CHJ04089, 1-((4-(2-(diethylamino)ethoxy)-3-methoxybenzyl)(methyl)amino)-3-(2-isopropylphenoxy)propan-2-ol]",–,–,–,–
35 ± 2.21 µM,36.4 ± 2.17 µM,34 ± 2.59 µM,11.7 ± 2.12 µM,"CCN(CC)CCOc1ccc(CN(C)CC(O)COc2cc(C(F)(F)F)ccc2Br)cc1OC (stereo not shown) [CHJ04090, 1-(2-bromo-5-(trifluoromethyl)phenoxy)-3-((4-(2-(diethylamino)ethoxy)-3-methoxybenzyl)(methyl)amino)propan-2-ol]",–,–,–,–
11.1 ± 1.33 µM,17.8 ± 3.11 µM,10.6 ± 3.2 µM,4.01 ± 3.11 µM,"CCN(CC)CCOc1ccc(CN(C)CC(O)COc2ccc(Cl)c(Cl)c2)cc1OC (stereo not shown) [CHJ04091, 1-(3,4-dichlorophenoxy)-3-((4-(2-(diethylamino)ethoxy)-3-methoxybenzyl)(methyl)amino)propan-2-ol]",–,–,–,–
30.2 ± 2.76 µM,34.5 ± 2.7 µM,47.9 ± 3.43 µM,11.2 ± 1.05 µM,"CCN(CC)CCOc1ccc(CN(C)CC(O)COc2ccc(F)c(Br)c2)cc1OC (stereo not shown) [CHJ04092, 1-(3-bromo-4-fluorophenoxy)-3-((4-(2-(diethylamino)ethoxy)-3-methoxybenzyl)(methyl)amino)propan-2-ol]",–,–,–,–
20.1 ± 2.01 µM,10.2 ± 1.69 µM,14.5 ± 2.14 µM,2.6 ± 1.22 µM,CCN(CC)CCOc1ccc(CN(C)CC(O)COc2ccc(Br)c(C(F)(F)F)c2)cc1OC (stereo not shown) [CHJ04093],–,–,–,–
18.4 ± 3.17 µM,15.9 ± 2.11 µM,28.5 ± 4.42 µM,2.05 ± 1.01 µM,"CCN(CC)CCOc1ccc(CN(C)CC(O)COc2c(Cl)cc(Br)cc2Cl)cc1OC (stereo not shown) [CHJ04094, 1-(4-bromo-2,6-dichlorophenoxy)-3-((4-(2-(diethylamino)ethoxy)-3-methoxybenzyl) (methyl)amino)propan-2-ol]",–,–,–,–
24.4 ± 2.78 µM,33.6 ± 2.47 µM,32.1 ± 3.39 µM,14.8 ± 2.77 µM,"COc1cc(CN(C)CC(O)COc2ccc(Br)c(C(F)(F)F)c2)ccc1OCCn1ccnc1 (stereo not shown) [CHJ04097, 1-((4-(2-(1H-imidazol-1-yl)ethoxy)-3-methoxybenzyl)(methyl)amino)-3-(4-bromo-3-(trifluoromethyl)phenoxy)propari-ol]",–,–,–,–
23.1 ± 2.58 µM,37.4 ± 2.48 µM,38.2 ± 2.94 µM,16.2 ± 2.11 µM,"COc1cc(CN(C)CC(O)COc2cc(C(F)(F)F)ccc2Br)ccc1OCCn1ccnc1 (stereo not shown) [CHJ04099, 1-((4-(2-(1H-imidazol-1yl)ethoxy)-3-methoxybenzyl)(methyl)amino)-3-(2-bromo-5-(trifluoromethyl)phenoxy)propan-2-ol]",–,–,–,–
30.7 ± 3.12 µM,40.1 ± 3.02 µM,49.1 ± 2.71 µM,15.8 ± 1.73 µM,COc1cc(CN(C)CC(O)COc2ccc(Br)cc2)ccc1OCCn1ccnc1 (stereo not shown) [CHJ05001],–,–,–,–
34 ± 2.11 µM,35.1 ± 1.35 µM,52.5 ± 1.22 µM,24.9 ± 1.93 µM,"COc1cc(CN(C)CC(O)COc2ccc(C)c(Br)c2)ccc1OCCn1ccnc1 (stereo not shown) [CHJ05003, 1-((4-(2-(1H-imidazol-1-yl)ethoxy)03-methoxybenzyl)(methyl)amino)-3-(3-bromo-4-methylphenoxy)propan-2-ol]",–,–,–,–
14.64 ± 0.06 µM,21.07 ± 0.18 µM,8.48 ± 0.07 µM,27.1 ± 0.66 µM,CCOc1ccccc1OCC(O)CN(C)Cc1ccc(OCCN2CCC(C)CC2)c(OC)c1 (stereo not shown) [SAMS10],–,–,–,–
–,–,–,–,"N.N.[Cl][Pt][Cl] [cisplatin, reference compound]",4.21 ± 1.31 µM,1.91 ± 0.43 µM,2.64 ± 1.12 µM,5.91 ± 1.64 µM
